{"source": "patent US8039468B2", "about": "“Method of inhibition of respiratory depression using positive allosteric AMPA receptor modulators” (The Governors of the University of Alberta, priority 2006, dated 2011)", "key": {"rats": {"tested_on": "rats", "assay": "Thermal nociception, hind paw withdrawal test", "format": "in vivo, rat"}, "[1]": {"tested_on": "brainstem-spinal cord preparations", "assay": "Brainstem-spinal cord preparation, rhythmic respiratory discharge (C4 ventral root)", "parameters": "species or system rat", "description": "The fetal and neonatal brainstem-spinal cord preparations have been well-characterized and shown to generate complex, coordinated patterns of respiratory-related activity. See, Smith J. C. et al. (1990) and Greer, J. J. et al. (1992). Recordings from cervical ventral and hypoglossal cranial roots provide information regarding the pharmacology of respiratory rhythm generating networks and the pathways transmitting that respiratory drive to key output components of the respiratory motor system, without the confounding influence of peripheral chemoreceptors and supramedullary structures.\nBrainstem-spinal cord preparations were carried out as follows: Sprague-Dawley (SD) rat fetuses were delivered from timed-pregnant dams anesthetized with halothane (2% delivered in 95% O2 and 5% CO2) and maintained at 37° C. by radiant heat, following procedures approved by the Animal Welfare Committee at the University of Alberta. The timing of pregnancies was determined by vaginal lavage of the dam. Newborn rat pups were anesthetized with metofane. Newborn pups and embryos were then decerebrated and the brainstem-spinal cord was dissected following procedures similar to those established for perinatal rats. See, Smith, J. C., et al. (1990) J. Neurophysiol. 64:1149-1169; Greer, J. J., et al. (1992) J. Neurophysiol. 67:996-999. The neuraxis was continuously perfused at 27±1° C. (perfusion rate 5 ml/minute, chamber volume of 1.5 ml) with modified Kreb's solution that contained (mM): 128 NaCl, 3.0 KCl, 1.5 CaCl2, 1.0 MgSO4, 24 NaHCO3, 0.5 NaH2PO4, and 30 D-glucose equilibrated with 95% O2-5% CO2 (pH=7.4)."}, "[2]": {"tested_on": "medullary slice preparations (preBötC, XII motoneuron nucleus)", "assay": "Medullary slice preparation, respiratory rhythm (XII nerve root discharge)", "parameters": "species or system rat", "settings": "for DAMGO-induced suppression of inspiratory discharge amplitude, focal injection into XII motorneuron nucleus / DAMGO-induced suppression of respiratory rhythm, focal injection into preBötC: newborn (P2) slice, CX614 200 μM, Compound A 1 mM, DAMGO in bath", "procedure": "The medullary slice preparation is a derivative of the brainstem-spinal cord preparation. See, Smith J. C., et al. (1991). It contains the minimum component of neuronal populations within the ventrolateral medulla necessary for generating a respiratory rhythm, the preBötC. The medullary slice also contains a significant portion of the rostral ventral respiratory group, hypoglossal nucleus and XII cranial nerve rootlets from which inspiratory motor discharge is recorded.\nBrainstem-spinal cords isolated from newborn rats were pinned down, ventral surface upward, on a paraffin-coated block. See, Funk, G. D., et al. (1993); Smith, J. C., et al. (1991). The block was mounted in the vise of a vibratome bath (Leica, VT1000S). […] A single transverse slice containing the preBötC and more caudal reticular formation regions was then cut (500-600 μm thick), transferred to a recording chamber and pinned down onto a Sylgard elastomer. The medullary slice was continuously perfused with a bathing solution identical to that used for the brainstem-spinal cord preparation with the exception that in some cases the K^+ concentration was increased to 9 mM which facilitates long-term generation of stable rhythm (>5 hours) by these preparations. See, Funk, G. D., et al. (1993); Smith, J. C., et al. (1991). Recordings were made from the hypoglossal (XII) cranial nerve roots, cervical (C4) ventral roots and neuronal population discharge within the ventrolateral medulla with suction electrodes placed over the nerve roots or on the surface of the rhythmic slice preparations."}, "[3]": {"tested_on": "inspiratory neuron within the preBötzinger complex", "assay": "Whole-cell recording from inspiratory neuron within the preBötzinger complex, medullary slice", "format": "cell-based, rat"}, "[4]": {"tested_on": "perfused heart in situ preparations", "assay": "Perfused heart in situ preparation, phrenic nerve discharge", "parameters": "species or system rat", "settings": "fentanyl 4 nM, then CX546 50 μM in perfusate"}, "XII motorneuron": {"tested_on": "XII motorneuron", "format": "cell-based, rat", "settings": "compound in bathing medium, TTX present"}, "[5]": {"settings": "listed as 4-(BENZOFURAZAN-5-YLCARBONYL)MORPHOLINE"}}, "note": "Entries after “also recorded” stand apart in the source; their conditions may differ. Marks after values point to notes of the source that are not given here."}
{"smiles": "O=C(c1ccc2c(c1)OCCO2)N1CCCCC1", "note": "[CX546, 1-(1,4-benzodioxan-6-ylcarbonyl)piperidine]", "values": [{"measurement": "Latency (s), hind paw withdrawal", "setting": "rats; Adult (2-3 months), drug alone i.p. (CX546 16 mg/kg pre-administration of fentanyl; fentanyl 130 μg/kg)", "result": "5.3 ± 2.1", "unit": "s"}, {"measurement": "Latency (s), hind paw withdrawal", "setting": "rats; Adult (2-3 months), post-administration of fentanyl 130 μg/kg, CX546 16 mg/kg or naloxone 1 mg/kg i.p.", "result": ">20* s"}, {"measurement": "sensitivity of thermal nociception tests in the control condition", "setting": "rats; CX546 16 mg/kg on its own", "result": "did not change the sensitivity"}, {"measurement": "Latency (s), hind paw withdrawal", "setting": "rats; Newborn (P1-P2), drug alone i.p. (CX546 16 mg/kg pre-administration of fentanyl; fentanyl 60 μg/kg)", "result": "4.3 ± 3.2", "unit": "s"}, {"measurement": "Latency (s), hind paw withdrawal", "setting": "rats; Newborn (P1-P2), post-administration of fentanyl 60 μg/kg, CX546 16 mg/kg or naloxone 1 mg/kg i.p.", "result": ">20* s"}, {"measurement": "fentanyl-induced analgesia after subsequent administration of the drug", "setting": "rats; newborn and adult rats, CX546 16 mg/kg or naloxone 1 mg/kg i.p.", "result": "persisted"}, {"measurement": "baseline frequency and amplitude of breathing", "setting": "Sprague-Dawley rat; CX546 16 mg/kg i.p. on its own, newborn P0-P2 and adult rats", "result": "not significantly altered"}, {"measurement": "behaviour or arousal state (spontaneous movement, agitation, sedation)", "setting": "Sprague-Dawley rat; rat, in vivo, ip, 16 mg/kg", "result": "without any obvious effect"}, {"measurement": "frequency of rhythmic respiratory discharge", "setting": "[1]; E20 preparation, CX546 50-100 μM in bathing medium", "result": "markedly enhanced"}, {"measurement": "DAMGO-induced depression of respiratory frequency and amplitude", "setting": "[1]; P1-P2, DAMGO 800 nM, then CX546 200 μM bath-applied", "result": "alleviated; also recorded: partially reversed"}, {"measurement": "baseline respiratory frequency", "setting": "[1]; P3 preparations, bath-applied CX546", "result": "no effect on the baseline frequency"}, {"measurement": "respiratory frequency compared to control", "setting": "[1]; perinatal preparations E18-P0, bath-applied CX546", "result": "significant increase in frequency"}, {"measurement": "time to restoration of frequency and amplitude to 3 mM [K+] bath levels", "setting": "[2]; CX546 400 μM bath-applied after rhythm ceased in 3 mM [K+]", "result": "≤ 2", "unit": "min"}, {"measurement": "effect on rhythmic respiratory activity after cessation", "setting": "[2]; CX546 400 μM bath-applied after rhythm ceased in 3 mM [K+], P2 slice", "result": "rapid and potent stimulation of respiratory networks; also recorded: restored rhythmic activity of XII motoneurons"}, {"measurement": "control values of respiratory frequency or amplitude of motor nerve discharge", "setting": "[2]; CX546 on its own, 9 mM [K+]o", "result": "did not significantly alter"}, {"measurement": "DAMGO-induced depression of respiratory frequency and amplitude", "setting": "[2]; P1-P2 slice, 9 mM [K+]o, DAMGO 800 nM, then CX546 200 μM bath-applied", "result": "alleviated; also recorded: partially reversed"}, {"measurement": "persistence of respiratory rhythm in presence of compound", "setting": "[2]; P2 slice, 3 mM [K+]o, CX546 in bath", "result": "> 3", "unit": "h"}, {"measurement": "frequency of the rhythm and inspiratory drive potential", "setting": "[3]; current clamp, low extracellular K+", "result": "increased"}, {"measurement": "amplitude of inward inspiratory drive current", "setting": "[3]; voltage clamp, same neuron", "result": "marked increase"}, {"measurement": "fentanyl-induced depression of respiratory frequency and phrenic burst amplitude", "setting": "[4]", "result": "counters"}]}
{"smiles": "O=C(c1ccc2nonc2c1)N1CCOCC1", "note": "[Compound A, 4-(benzofurazan-5-ylcarbonyl)morpholine]", "values": [{"measurement": "amplitude and duration of glutamate-induced inward currents", "setting": "XII motorneuron", "result": "not significantly altered"}, {"measurement": "persistence of enhancement of respiratory rhythm", "setting": "Sprague-Dawley rat; rat, in vivo", "result": "at least 1 hour"}, {"measurement": "DAMGO-induced suppression of inspiratory discharge amplitude, focal injection into XII motorneuron nucleus", "setting": "[2]", "result": "alleviates some of the amplitude depression"}, {"measurement": "DAMGO-induced suppression of respiratory rhythm, focal injection into preBötC", "setting": "[2]", "result": "alleviates the frequency depression"}, {"measurement": "DAMGO-induced suppression of inspiratory discharge amplitude, focal injection into XII motorneuron nucleus", "setting": "[2]; [5]", "result": "alleviates DAMGO induced suppression of respiratory rhythm"}, {"measurement": "DAMGO-induced suppression of respiratory rhythm, focal injection into preBötC", "setting": "[2]; [5]", "result": "alleviates DAMGO induced suppression of respiratory rhythm"}, {"measurement": "current amplitude in response to glutamate injections", "setting": "[3]; voltage clamp, TTX present, bath-applied compound", "result": "increases"}]}
{"smiles": "C[C@@H](NC(=O)[C@@H](N)Cc1ccc(O)cc1)C(=O)NCC(=O)N(C)[C@@H](Cc1ccccc1)C(=O)NCCO", "note": "[DAMGO, Tyr-D-Ala-Gly-N-methyl-Phe-Gly-ol-enkephalin, reference compound]", "values": [{"measurement": "respiratory frequency and amplitude", "setting": "[1]; P1 preparation, DAMGO 800 nM bath-applied", "result": "markedly suppressed"}, {"measurement": "respiratory frequency and amplitude", "setting": "[2]; P1 slice in 9 mM [K+]o, DAMGO 800 nM bath-applied", "result": "markedly suppressed"}]}
